Reference: PubChem BioAssay (NCI)
Several values for one entry are separate records, joined by “and”; a condition that tells them apart may be missing. Equal values may be shown once.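 1) Cells in 96-well plates. 2) Compound, 48 h, 5 concentrations. 3) Linear interpolation between surrounding doses. 4) Unreached endpoint = highest concentration. The concentration for 50% growth inhibition is given as GI50. TGI: concentration producing complete growth inhibition.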

How the values were obtained:
Assay in all cases: DTP human tumour cell line panel, 48 h
786-0 renal = system: 786-0 renal
EKVX NSCLC = system: EKVX NSCLC
HCT-116 colon = system: HCT-116 colon
HOP-62 NSCLC = system: HOP-62 NSCLC
M14 melanoma = system: M14 melanoma
NCI/ADR-RES ovarian = system: NCI/ADR-RES ovarian
PC-3 prostate = system: PC-3 prostate
SF-539 CNS = system: SF-539 CNS
SN12C renal = system: SN12C renal
UACC-257 melanoma = system: UACC-257 melanoma

Row | Structure (SMILES) | GI50 (786-0 renal) | TGI (786-0 renal) | GI50 (EKVX NSCLC) | TGI (EKVX NSCLC) | GI50 (HCT-116 colon) | TGI (HCT-116 colon) | GI50 (HOP-62 NSCLC) | TGI (HOP-62 NSCLC) | GI50 (M14 melanoma) | TGI (M14 melanoma) | GI50 (NCI/ADR-RES ovarian) | TGI (NCI/ADR-RES ovarian) | GI50 (PC-3 prostate) | TGI (PC-3 prostate) | GI50 (SF-539 CNS) | TGI (SF-539 CNS) | GI50 (SN12C renal) | TGI (SN12C renal) | GI50 (UACC-257 melanoma) | TGI (UACC-257 melanoma)
1 | CC12OC(c3ccccc3)=CC(c3ccc(Cl)cc3)=C1C(c1ccccc1)=CC2=O (centres undefined) | 94.7 µM | > 100 µM | > 100 µM | > 100 µM | 46.1 µM | > 100 µM | > 100 µM | > 100 µM | 28.2 µM | 83 µM | 55.9 µM | > 100 µM | 34.4 µM | > 100 µM | > 100 µM | > 100 µM | > 100 µM | > 100 µM | 49.3 µM | > 100 µM
2 | COC(=O)CCc1cc(OC)c2c(c1)C(C(=O)OC)C(c1ccc(OC)c(OC)c1)O2 (centres undefined) | > 100 µM and 40.9 µM | > 100 µM | – | > 100 µM | – | > 100 µM | > 100 µM and 36.6 µM | > 100 µM | > 100 µM and 11.6 µM | > 100 µM | > 100 µM and 26.8 µM | > 100 µM | > 100 µM and 28.8 µM | > 100 µM | > 100 µM and 11.1 µM | > 100 µM and 47.3 µM | – | > 100 µM | – | > 100 µM
3 | CN[C@@H](C)C(=O)N[C@H](C(=O)N1CCC[C@H]1C(=O)N[C@H]1c2ccccc2C[C@H]1OCC#CC#CCO[C@@H]1Cc2ccccc2[C@@H]1NC(=O)[C@@H]1CCCN1C(=O)[C@@H](NC(=O)[C@H](C)NC)C1CCCCC1)C1CCCCC1 | 9.29 µM | 25.3 µM | 6.86 µM | 20.6 µM | 3.68 µM | 14.1 µM | 0.422 µM | 16 µM | 5.72 µM | 18 µM | 12 µM | > 100 µM | 6.04 µM | 18.7 µM | < 0.01 µM | 1.28 µM | 7.95 µM | 21.6 µM | 13.5 µM | 28.8 µM
4 | CCN(CC)CCCC(C)Nc1c2ccc(Cl)cc2nc2ccc(OC)cc12 (centres undefined) | 1.88 µM | 4.15 µM and 4.77 µM | 2.09 µM | 7.29 µM and 13.3 µM | 1.38 µM | 5.79 µM and 4.31 µM | 1.61 µM | 3.98 µM and 8.04 µM | – | 3.36 µM and 3.39 µM | 2.26 µM | 9.69 µM and 7.81 µM | 2.24 µM | 9.19 µM and 5.73 µM | 1.86 µM | 3.39 µM and 3.3 µM | 1.59 µM | 7.16 µM and 9.28 µM | – | 3.43 µM and 3.38 µM
5 | CC(C)c1ccc(C(=O)Nc2nc3ccc(O)cc3s2)cc1 | 0.866 µM | 6.09 µM | 2.34 µM | > 100 µM | 0.468 µM | > 100 µM | 1.74 µM | > 100 µM | 0.167 µM | 46.5 µM | 0.948 µM | > 100 µM | 3.23 µM | > 100 µM | 1.22 µM | 11.6 µM | 2.18 µM | > 100 µM | 1.51 µM | > 100 µM
6 | CSc1ccc(C2=NN(C(=O)c3ccc(F)cc3)C(c3ccc(F)cc3)C2)cc1 (centres undefined) | 15.5 µM | 30.7 µM | 18.9 µM | 37 µM | 3.61 µM | 12.7 µM | 18.4 µM | 33.7 µM | 9.43 µM | 22.1 µM | 16 µM | 33 µM | 6.43 µM | 22.2 µM | 19.4 µM | 38.1 µM | 7.21 µM | 19.2 µM | 14.7 µM | 28.3 µM
